Measurements reported in the supplement of paper PMC11061612.

Columns and labels:
Assay in all cases: combination Emax (second highest fraction inhibited in the dose matrix, 72 h); higher = more inhibition; extreme values may be limits of the assay
[1] = test system: KOPN-8 (B-Lymphoblastic Leukemia)
Method in brief: (§1)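 Cell lines in DMEM/F12 or RPMI with 10% FBS were plated in 1536-well plates, held 24 hours at 37°C, 5% CO2, then given two-drug dose matrices for 72 hours (DMSO typically 0.2%). Viability was read by CellTiter-Glo 2.0 luminescence and scaled as inhibition from 0 (vehicle wells) to 1 (blank wells). Combination Emax is the second-highest inhibition in the matrix; Bliss excess is observed combination effect minus expected EA + EB − EA·EB, EA and EB being single-agent effects.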

[2] = test system: CADO-ES1 (Ewing's Sarcoma)
Method in brief: as §1

[3] = test system: LC-1-sq (Squamous Cell Lung Carcinoma)
Method in brief: as §1

EW-1 (Ewing's Sarcoma) = test system: EW-1 (Ewing's Sarcoma)
Method in brief: as §1

| Compound | combination Emax [1] | combination Emax [2] | combination Emax [3] | combination Emax (EW-1 (Ewing's Sarcoma)) |
| --- | --- | --- | --- | --- |
| Cc1cc2ncnn2cc1Nc1ncc2c(n1)n(C1CCOCC1)c(=O)n2C [AZD7648] + O=C(c1cc(Cc2n[nH]c(=O)c3ccccc23)ccc1F)N1CCN(C(=O)C2CC2)CC1 [Olaparib] (first compound max 10 µM, 7x7, partner max 10 µM) | 0.68 | 0.548 | 0.17 | 0.732 |
| CN(CCO)CC[C@H](CSc1ccccc1)Nc1ccc(S(=O)(=O)NC(=O)c2ccc(N3CCC([C@@H](O)c4ccccc4-c4ccc(Cl)cc4)CC3)cc2)cc1S(=O)(=O)C(F)(F)F [AZD4320] + CCN(CCO)CCCOc1ccc2c(Nc3cc(CC(=O)Nc4cccc(F)c4)[nH]n3)ncnc2c1 [AZD2811] (first compound max 1 µM, 7x7, partner max 1 µM) | 0.963 | 0.668 | 0.264 | 0.863 |
| CN(CCO)CC[C@H](CSc1ccccc1)Nc1ccc(S(=O)(=O)NC(=O)c2ccc(N3CCC([C@@H](O)c4ccccc4-c4ccc(Cl)cc4)CC3)cc2)cc1S(=O)(=O)C(F)(F)F [AZD4320] + C1CN(CCC1(C(=O)N[C@@H](CCO)C2=CC=C(C=C2)Cl)N)C3=NC=NC4=C3C=CN4 [Capivasertib] (first compound max 1 µM, 7x7, partner max 3 µM) | 0.883 | 0.613 | 0.134 | 0.67 |
| Cc1nc(Nc2ncc(C(=O)Nc3c(C)cccc3Cl)s2)cc(N2CCN(CCO)CC2)n1 [Dasatinib] + CC(=O)Nc1cccc(-n2c(=O)n(C3CC3)c(=O)c3c(Nc4ccc(I)cc4F)n(C)c(=O)c(C)c32)c1 [Trametinib] (first compound max 2 µM, 7x7, partner max 1 µM) | 0.545 | 0.151 | 0.166 | 0.153 |
| CN(CCO)CC[C@H](CSc1ccccc1)Nc1ccc(S(=O)(=O)NC(=O)c2ccc(N3CCC([C@@H](O)c4ccccc4-c4ccc(Cl)cc4)CC3)cc2)cc1S(=O)(=O)C(F)(F)F [AZD4320] + Cn1cnc2c(F)c(Nc3ccc(Br)cc3Cl)c(C(=O)NOCCO)cc21 [Selumetinib] (first compound max 1 µM, 7x7, partner max 3 µM) | 1 | 0.886 | 0.485 | 0.921 |
| Cc1cc2ncnn2cc1Nc1ncc2c(n1)n(C1CCOCC1)c(=O)n2C [AZD7648] + CN(C)CCCOc1ccc(-c2ccc3ncc4c(c3c2)n(C2CCOCC2)c(=O)n4C)cn1 [AZD0156] (first compound max 10 µM, 7x7, partner max 1 µM) | 0.311 | 0.38 | 0.221 | 0.34 |
| Cc1c2c(nn1C)CSCc1cc(n(C)n1)CSc1cc(c3ccccc3c1)OCCCc1c(C(=O)O)n(C)c3c-2c(Cl)ccc13 [AZD5991] + Cn1cnc2c(F)c(Nc3ccc(Br)cc3Cl)c(C(=O)NOCCO)cc21 [Selumetinib] (first compound max 1 µM, 7x7, partner max 3 µM) | 1 | 0.874 | 0.311 | 0.273 |
| CN(CCO)CC[C@H](CSc1ccccc1)Nc1ccc(S(=O)(=O)NC(=O)c2ccc(N3CCC([C@@H](O)c4ccccc4-c4ccc(Cl)cc4)CC3)cc2)cc1S(=O)(=O)C(F)(F)F [AZD4320] + Cc1cc2ncnn2cc1Nc1ncc2c(n1)n(C1CCOCC1)c(=O)n2C [AZD7648] (first compound max 1 µM, 7x7, partner max 10 µM) | 0.88 | 0.608 | 0.158 | 0.745 |
| Cc1cc2ncnn2cc1Nc1ncc2c(n1)n(C1CCOCC1)c(=O)n2C [AZD7648] + C=CCn1c(=O)c2cnc(Nc3ccc(N4CCN(C)CC4)cc3)nc2n1-c1cccc(C(C)(C)O)n1 [AZD1775] (first compound max 10 µM, partner max 1 µM) | 0.903 | 0.45 | 0.91 | 0.832 |
| C[C@@H](c1ccc2nccn2c1)n1nnc2ncc(-c3cnn(C)c3)nc21 [Savolitinib] + CC1(C)CCC(CN2CCN(c3ccc(C(=O)NS(=O)(=O)c4ccc(NCC5CCOCC5)c([N+](=O)[O-])c4)c(Oc4cnc5[nH]ccc5c4)c3)CC2)=C(c2ccc(Cl)cc2)C1 [Venetoclax] (first compound max 1 µM, 7x7, partner max 1 µM) | 0.743 | 0.695 | 0.116 | 0.112 |
| Cc1cc2ncnn2cc1Nc1ncc2c(n1)n(C1CCOCC1)c(=O)n2C [AZD7648] + CCN(CCO)CCCOc1ccc2c(Nc3cc(CC(=O)Nc4cccc(F)c4)[nH]n3)ncnc2c1 [AZD2811] (first compound max 10 µM, 7x7, partner max 1 µM) | 0.58 | 0.377 | 0.325 | 0.312 |
| CN(CCO)CC[C@H](CSc1ccccc1)Nc1ccc(S(=O)(=O)NC(=O)c2ccc(N3CCC([C@@H](O)c4ccccc4-c4ccc(Cl)cc4)CC3)cc2)cc1S(=O)(=O)C(F)(F)F [AZD4320] + C[C@@H]1COCCN1C2=NC(=NC(=C2)C3(CC3)[S@](=N)(=O)C)C4=C5C=CNC5=NC=C4 [AZD6738] (first compound max 1 µM, 7x7, partner max 10 µM) | 0.995 | 0.939 | 0.845 | 0.997 |
| CN(CCO)CC[C@H](CSc1ccccc1)Nc1ccc(S(=O)(=O)NC(=O)c2ccc(N3CCC([C@@H](O)c4ccccc4-c4ccc(Cl)cc4)CC3)cc2)cc1S(=O)(=O)C(F)(F)F [AZD4320] + C[C@@H](Nc1cc(F)cc(F)c1)c1cc(C(=O)N(C)C)cc2c(=O)cc(N3CCOCC3)oc12 [AZD8186] (first compound max 1 µM, 7x7, partner max 3 µM) | 1 | 0.919 | 0.336 | 0.924 |
| C[C@@H](c1ccc2nccn2c1)n1nnc2ncc(-c3cnn(C)c3)nc21 [Savolitinib] + Cc1c2c(nn1C)CSCc1cc(n(C)n1)CSc1cc(c3ccccc3c1)OCCCc1c(C(=O)O)n(C)c3c-2c(Cl)ccc13 [AZD5991] (first compound max 1 µM, 7x7, partner max 1 µM) | 0.844 | 0.346 | 0.278 | 0.2 |
| Cc1cc2ncnn2cc1Nc1ncc2c(n1)n(C1CCOCC1)c(=O)n2C [AZD7648] + C[C@@H]1COCCN1C2=NC(=NC(=C2)C3(CC3)[S@](=N)(=O)C)C4=C5C=CNC5=NC=C4 [AZD6738] (first compound max 10 µM, 7x7, partner max 10 µM) | 0.891 | 0.824 | 0.827 | 0.871 |
| COc1cc2ncnc(Nc3ccc(F)c(Cl)c3)c2cc1OCCCN1CCOCC1 [Gefitinib] + CC(C)n1c(=O)n(C)c2cnc3cc(F)c(-c4ccc(OCCCN5CCCCC5)nc4)cc3c21 [AZD1390] (first compound max 10 µM, 7x7, partner max 0.3 µM) | 0.241 | 0.123 | 0.265 | 0.344 |
| COc1cc2c(cc1OCCCCCOc1cc3c(cc1OC)C(=O)N1C=C(C)C[C@H]1C=N3)N=C[C@@H]1CC(C)=CN1C2=O [SG3199] + O=C(c1cc(Cc2n[nH]c(=O)c3ccccc23)ccc1F)N1CCN(C(=O)C2CC2)CC1 [Olaparib] (first compound max 0.001 µM, 7x7, partner max 10 µM) | 0.719 | 0.325 | 0.187 | 0.636 |
